Results: patent US8168860B2, “Compositions and methods for the modification of physiological responses in plants” (Rohm and Haas Company, priority 2007, dated 2012)

Experiments:
Type in all cases: in vivo
[1] = system: transformed tomato plants; assay: Triple response assay, transformed tomato plants with ethylene; conditions: transgenic tomato with etr1-1 cassettes, 20 μM inducer, dark, 4-8 days
Method: (§1) A triple response assay (Guzman and Ecker, 1990, cited above, modified as described below) was used to determine the modulation of ethylene sensitivity in the transformed tomato plants. Tomato seed was surface-sterilized and imbibed in 20 μM inducer in the dark for 4 days at 4° C. The seed was plated on 0.5× MS with 1% sucrose and 20 μM inducer and for mutant receptors treated with 10 ppm ethylene or 1 ppm ethylene for wild-type receptors and grown in the dark for 4-8 days at 21° C. The response to ethylene was scored on the last day.

[2] = system: tomato seedlings (WT, p1002 and p1003 lines); assay: Tomato seedling growth in the dark on 20 μM ACC with or without inducer; conditions: for Hypocotyls (mm) / Root (mm): 20 μM inducer, 20 μM ACC, 14 day old seedlings, dark
Method: Seed from three homozygous independent p1002 and p1003 lines were germinated in the dark on 0.5× MS medium+1% sucrose containing 20 μM ACC, the precursor to ethylene. Germination on ACC inhibits tomato seedling growth. Seed from the same lines also was germinated in the presence of 20 μM ACC plus 20 μM inducer.

[3] = system: transformed tobacco plants; assay: Triple response assay, shoot length of transformed tobacco shoots in dark with ethylene; conditions: tobacco plant 185-3 (VGE), induced, 10 μM inducer, ethylene about 10 ppm, 18 days
[4] = system: tomato seedlings (WT, p1002-18, p1003-16); assay: Tomato seedling growth on 20 μM ACC and various levels of inducer; conditions: 20 μM ACC; for Hypocotyl (mm) / Root (mm): 10 day old seedlings
Method: Homozygous tomato seeds from one p1002 containing and one p1003 containing line were germinated on medium containing 20 μM ACC and various levels of inducer (i.e., 0.5-20 μM).

[5] = system: Wild-type, ein2-5 and p1002 Arabidopsis transformant seedlings; assay: Triple response assay, Arabidopsis seedlings, root and hypocotyl growth with ethylene; conditions: for Roots (mm) Avg / Hypocotyls (mm) Avg: 11 days
Method: as §1, with “1990” for “1990,”, “Arabidopsis plants of Example 4. Arabidopsis” for “tomato plants. Tomato”
Wild-type, ein2-5 (an ethylene insensitive mutant control), and p1002 Arabidopsis transformant seedlings were assayed for ethylene insensitivity using the triple response assay (Guzman and Ecker, 1990, cited above, with the following modifications) in which seeds were germinated on 0.5× MS media for 11 days in the dark in the presence of 10 ppm ethylene. Root and hypocotyl growth is inhibited by ethylene in ethylene sensitive but not in ethylene insensitive seedlings.

[6] = tomato line p1002-4 (first line so labelled, r8)
[7] = tomato line p1002-4 (second line so labelled, r13)
[8] = p1002-18 tomato, Inducer 0.5 μM
[9] = p1002-18 tomato, Inducer 2.5 μM
[10] = p1003-16 tomato, Inducer 0.5 μM
[11] = p1003-16 tomato, Inducer 2.5 μM
[12] = Arabidopsis, presence of inducer, 10 ppm ethylene
[13] = Ein2-5 seedlings, 20 μM inducer, 10 ppm ethylene, dark
[14] = WT seedlings, 20 μM inducer, 10 ppm ethylene, dark
[15] = p1002-1-4 seedlings, 20 μM inducer, 10 ppm ethylene, dark
[16] = p1002-3-4 seedlings, 20 μM inducer, 10 ppm ethylene, dark
[17] = p1002-11-3 seedlings, 20 μM inducer, 10 ppm ethylene, dark
[18] = p1002-23-2 seedlings, 20 μM inducer, 10 ppm ethylene, dark
[19] = p1002-24-4 seedlings, 20 μM inducer, 10 ppm ethylene, dark

**Q.** For `CCC(N(NC(=O)c1ccc2c(c1C)O[C@@H](CO)CO2)C(=O)c1cc(C)cc(C)c1)C(C)(C)C` (stereo partly drawn) [inducer, 3,5 Dimethyl-benzoic acid N-(1-ethyl-2,2-dimethyl-propyl)-N′-(3S-hydroxymethyl-5-methyl-2,3-dihydro-benzo[1,4]dioxine-6-carbonyl)hydrazide], which “ethylene insensitivity, based on increased shoot length and/or altered root growth compared to non-induced transgenic plants” value [1] is on record?
**A.** The value was “demonstrated ethylene insensitivity”.

**Q.** What about the “Hypocotyls (mm)” value ([2]; WT tomato) of the same compound?
**A.** The value was 11.2 ± 3.18 mm.

**Q.** And the “Root (mm)” value ([2]; WT tomato)?
**A.** Its value is 11.2 ± 3.18 mm.

**Q.** And the “Hypocotyls (mm)” value [2, 6]?
**A.** The value was 32.7 ± 16.8 mm.

**Q.** And the “Root (mm)” value [2, 6]?
**A.** The value was 42.2 ± 16.3 mm.

**Q.** And the “Hypocotyls (mm)” value [2, 7]?
**A.** The value was 33.9 ± 6.02 mm.

**Q.** What about the “Root (mm)” value [2, 7] of the same compound?
**A.** Its value is 29.8 ± 21.4 mm.

**Q.** What about the “Hypocotyls (mm)” value ([2]; tomato line p1002-7) of the same compound?
**A.** Its value is 36.2 ± 8.42 mm.

**Q.** What about the “Root (mm)” value ([2]; tomato line p1002-7) of the same compound?
**A.** Its value is 44.5 ± 7.71 mm.

**Q.** What about the “Hypocotyls (mm)” value ([2]; tomato line p1002-9) of the same compound?
**A.** Its value is 29.9 ± 7.85 mm.

**Q.** What about the “Root (mm)” value ([2]; tomato line p1002-9) of the same compound?
**A.** Its value is 35.0 ± 16.0 mm.

**Q.** And the “Hypocotyls (mm)” value ([2]; tomato line p1002-16)?
**A.** The value was 39.6 ± 9.62 mm.

**Q.** And the “Root (mm)” value ([2]; tomato line p1002-16)?
**A.** The value was 19.5 ± 16.3 mm.

**Q.** And the “Hypocotyls (mm)” value ([2]; tomato line p1002-18)?
**A.** The value was 35.4 ± 8.82 mm.

**Q.** What about the “Root (mm)” value ([2]; tomato line p1002-18) of the same compound?
**A.** Its value is 35.4 ± 8.82 mm.

**Q.** And the “ethylene insensitivity (elongated hypocotyls with no apical hook)” value ([2]; tomato p1002 and p1003 lines, growth on ACC in the presence of inducer)?
**A.** Its value is “resulted in a state of ethylene insensitivity”.

**Q.** What about the “Shoot Length Avg (cm)” value [3] of the same compound?
**A.** Its value is 5.6 cm.

**Q.** What about the “Hypocotyl (mm)” value ([4]; WT tomato, Inducer 20 μM) of the same compound?
**A.** The value was 6.24 ± 2.75 mm.

**Q.** And the “Root (mm)” value ([4]; WT tomato, Inducer 20 μM)?
**A.** Its value is 9.06 ± 14.8 mm.

**Q.** And the “Hypocotyl (mm)” value [4, 8]?
**A.** The value was 8.40 ± 6.29 mm.

**Q.** And the “Root (mm)” value [4, 8]?
**A.** The value was 12.0 ± 13.3 mm.

**Q.** And the “Hypocotyl (mm)” value ([4]; p1002-18 tomato, Inducer 1 μM)?
**A.** The value was 11.1 ± 7.41 mm.

**Q.** And the “Root (mm)” value ([4]; p1002-18 tomato, Inducer 1 μM)?
**A.** Its value is 16.5 ± 16.6 mm.

**Q.** What about the “Hypocotyl (mm)” value [4, 9] of the same compound?
**A.** The value was 13.5 ± 8.97 mm.

**Q.** And the “Root (mm)” value [4, 9]?
**A.** The value was 16.0 ± 16.6 mm.

**Q.** And the “Hypocotyl (mm)” value ([4]; p1002-18 tomato, Inducer 5 μM)?
**A.** The value was 14.5 ± 7.75 mm.

**Q.** What about the “Root (mm)” value ([4]; p1002-18 tomato, Inducer 5 μM) of the same compound?
**A.** Its value is 15.2 ± 8.39 mm.

**Q.** And the “Hypocotyl (mm)” value ([4]; p1002-18 tomato, Inducer 10 μM)?
**A.** The value was 19.8 ± 10.8 mm.

**Q.** What about the “Root (mm)” value ([4]; p1002-18 tomato, Inducer 10 μM) of the same compound?
**A.** The value was 22.7 ± 13.5 mm.

**Q.** And the “Hypocotyl (mm)” value ([4]; p1002-18 tomato, Inducer 20 μM)?
**A.** The value was 26.3 ± 11.9 mm.

**Q.** What about the “Root (mm)” value ([4]; p1002-18 tomato, Inducer 20 μM) of the same compound?
**A.** The value was 33.3 ± 12.8 mm.

**Q.** And the “Hypocotyl (mm)” value [4, 10]?
**A.** The value was 17.0 ± 6.46 mm.

**Q.** And the “Root (mm)” value [4, 10]?
**A.** The value was 14.4 ± 15.3 mm.

**Q.** What about the “Hypocotyl (mm)” value ([4]; p1003-16 tomato, Inducer 1 μM) of the same compound?
**A.** Its value is 20.9 ± 10.7 mm.

**Q.** And the “Root (mm)” value ([4]; p1003-16 tomato, Inducer 1 μM)?
**A.** The value was 10.3 ± 12.7 mm.

**Q.** And the “Hypocotyl (mm)” value [4, 11]?
**A.** The value was 20.1 ± 8.77 mm.

**Q.** What about the “Root (mm)” value [4, 11] of the same compound?
**A.** The value was 9.19 ± 8.98 mm.

**Q.** What about the “Hypocotyl (mm)” value ([4]; p1003-16 tomato, Inducer 5 μM) of the same compound?
**A.** The value was 23.6 ± 11.4 mm.

**Q.** And the “Root (mm)” value ([4]; p1003-16 tomato, Inducer 5 μM)?
**A.** Its value is 20.2 ± 14.9 mm.

**Q.** What about the “Hypocotyl (mm)” value ([4]; p1003-16 tomato, Inducer 10 μM) of the same compound?
**A.** The value was 25.9 ± 8.77 mm.

**Q.** And the “Root (mm)” value ([4]; p1003-16 tomato, Inducer 10 μM)?
**A.** Its value is 29.1 ± 12.4 mm.

**Q.** And the “Hypocotyl (mm)” value ([4]; p1003-16 tomato, Inducer 20 μM)?
**A.** The value was 27.5 ± 9.10 mm.

**Q.** And the “Root (mm)” value ([4]; p1003-16 tomato, Inducer 20 μM)?
**A.** The value was 25.6 ± 11.4 mm.

**Q.** And the “relation of inducer concentration to level of ethylene insensitivity” value ([4]; tomato p1002 and p1003 line, inducer 0.5-20 μM)?
**A.** The value was “directly related to the level of ethylene insensitivity”.

**Q.** What about the “root length of most p1002 transformants versus wild-type or ein2 mutant seedlings” value ([5]; Arabidopsis, inducer in the presence of silver, 10 ppm ethylene) of the same compound?
**A.** The value was “not significantly longer”.

**Q.** What about the “effect on hypocotyls of p1002 transformants” value [5, 12] of the same compound?
**A.** The value was “No effect was observed”.

**Q.** What about the “root length of p1002 transformants relative to wild-type seedlings” value [5, 12] of the same compound?
**A.** The value was “significantly longer”.

**Q.** And the “Roots (mm) Avg” value ([5]; Ein2-5 seedlings, 20 μM inducer + 5 μM AgNO3, 10 ppm ethylene, dark)?
**A.** Its value is 12.4 mm.

**Q.** What about the “Hypocotyls (mm) Avg” value [5, 13] of the same compound?
**A.** Its value is roughly 30 mm.

**Q.** And the “Roots (mm) Avg” value [5, 13]?
**A.** Its value is 19.9 mm.

**Q.** And the “Roots (mm) Avg” value ([5]; WT seedlings, 20 μM inducer + 5 μM AgNO3, 10 ppm ethylene, dark)?
**A.** Its value is 13.9 mm.

**Q.** What about the “Hypocotyls (mm) Avg” value [5, 14] of the same compound?
**A.** The value was 12 mm.

**Q.** And the “Roots (mm) Avg” value [5, 14]?
**A.** Its value is 3.92 mm.

**Q.** What about the “Roots (mm) Avg” value ([5]; p1002-1-4 seedlings, 20 μM inducer + 5 μM AgNO3, 10 ppm ethylene, dark) of the same compound?
**A.** Its value is 11.8 mm.

**Q.** And the “Hypocotyls (mm) Avg” value [5, 15]?
**A.** The value was 12.3 mm.

**Q.** And the “Roots (mm) Avg” value [5, 15]?
**A.** The value was 5.8 mm.

**Q.** And the “Roots (mm) Avg” value ([5]; p1002-3-4 seedlings, 20 μM inducer + 5 μM AgNO3, 10 ppm ethylene, dark)?
**A.** Its value is 17.4 mm.

**Q.** What about the “Hypocotyls (mm) Avg” value [5, 16] of the same compound?
**A.** The value was 12.7 mm.

**Q.** And the “Roots (mm) Avg” value [5, 16]?
**A.** Its value is 6.7 mm.

**Q.** What about the “Roots (mm) Avg” value ([5]; p1002-11-3 seedlings, 20 μM inducer + 5 μM AgNO3, 10 ppm ethylene, dark) of the same compound?
**A.** The value was 11.7 mm.

**Q.** What about the “Hypocotyls (mm) Avg” value [5, 17] of the same compound?
**A.** Its value is 12.1 mm.

**Q.** What about the “Roots (mm) Avg” value [5, 17] of the same compound?
**A.** Its value is 5.6 mm.

**Q.** What about the “Roots (mm) Avg” value ([5]; p1002-23-2 seedlings, 20 μM inducer + 5 μM AgNO3, 10 ppm ethylene, dark) of the same compound?
**A.** Its value is 10.5 mm.

**Q.** What about the “Hypocotyls (mm) Avg” value [5, 18] of the same compound?
**A.** Its value is 12.1 mm.

**Q.** What about the “Roots (mm) Avg” value [5, 18] of the same compound?
**A.** Its value is 6.04 mm.

**Q.** And the “Roots (mm) Avg” value ([5]; p1002-24-4 seedlings, 20 μM inducer + 5 μM AgNO3, 10 ppm ethylene, dark)?
**A.** The value was 13.1 mm.

**Q.** And the “Hypocotyls (mm) Avg” value [5, 19]?
**A.** Its value is 12.2 mm.

**Q.** What about the “Roots (mm) Avg” value [5, 19] of the same compound?
**A.** The value was 4.96 mm.

**Q.** And the “ethylene insensitivity, based on increased shoot length and/or altered root growth compared to non-induced transgenic plants” value ([5]; transgenic Arabidopsis with etr1-1 cassettes, 20 μM inducer, ethylene, dark, 4-8 days)?
**A.** The value was “demonstrated ethylene insensitivity”.
